Source: the supplement of paper PMC10307832

How the values were obtained:
Test in all cases: relative viability (nuclei count vs DMSO), 5 days (fraction); higher = more cells survive
[1] = compound: C1=CC=C2C(=C1)N=C(S2)C(C#N)C3=NC(=NC=C3)NCCC4=CN=CC=C4 + COc1cc2c(Oc3ccc(NC(=O)C4(C(=O)Nc5ccc(F)cc5)CC4)cc3F)ccnc2cc1OCCCN1CCOCC1 [Foretinib] (partner 0.25 µM)
Summary of the method: (§1)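 Five library-drug doses in √10 steps were combined with a fixed anchor-drug dose, or a single drug was given alone, by pin tool to lung cancer cell lines in 1536-well plates the day after seeding. Nuclei were stained and counted after 5 days. Relative viability is the nuclei count in treated wells over that in vehicle wells, taken as the median of duplicate plates.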

[2] = compound: C1=CC=C2C(=C1)N=C(S2)C(C#N)C3=NC(=NC=C3)NCCC4=CN=CC=C4 + CS(=O)(=O)CCNCc1ccc(-c2ccc3ncnc(Nc4ccc(OCc5cccc(F)c5)c(Cl)c4)c3c2)o1 [Lapatinib] (partner 2 µM)
Summary of the method: as §1

[3] = compound: COc1cc2/c(=N/c3ccc(Br)cc3F)nc[nH]c2cc1OCC1CCN(C)CC1 [Vandetanib] + CC1(C)CCC(c2ccc(Cl)cc2)=C(CN2CCN(c3ccc(C(=O)NS(=O)(=O)c4ccc(N[C@H](CCN5CCOCC5)CSc5ccccc5)c(S(=O)(=O)C(F)(F)F)c4)cc3)CC2)C1 [Navitoclax] (partner 0.5 µM)
Summary of the method: as §1

[4] = compound: COc1cc2/c(=N/c3ccc(Br)cc3F)nc[nH]c2cc1OCC1CCN(C)CC1 [Vandetanib] + Nc1ncn([C@H]2C[C@H](O)[C@@H](CO)O2)c(=O)n1 [Decitabine] (partner 2 µM)
Summary of the method: as §1

Cell Line | relative viability ([1]; first compound 0.005 µM) | relative viability ([1]; first compound 0.01581 µM) | relative viability ([1]; first compound 0.05 µM) | relative viability ([1]; first compound 0.1581 µM) | relative viability ([1]; first compound 0.5 µM) | relative viability ([2]; first compound 0.005 µM) | relative viability ([2]; first compound 0.01581 µM) | relative viability ([2]; first compound 0.05 µM) | relative viability ([2]; first compound 0.1581 µM) | relative viability ([2]; first compound 0.5 µM) | relative viability ([3]; first compound 0.02 µM) | relative viability ([3]; first compound 0.06325 µM) | relative viability ([3]; first compound 0.2 µM) | relative viability ([3]; first compound 0.6325 µM) | relative viability ([3]; first compound 2 µM) | relative viability ([4]; first compound 0.02 µM) | relative viability ([4]; first compound 0.06325 µM) | relative viability ([4]; first compound 0.2 µM) | relative viability ([4]; first compound 0.6325 µM) | relative viability ([4]; first compound 2 µM)
NCI-H1651 | 0.687 | 0.872 | 0.774 | 0.801 | 0.757 | 0.76 | 0.697 | 1.03 | 1.11 | 0.872 | 0.927 | 1.11 | 1.08 | 1.07 | 0.928 | 0.609 | 0.583 | 0.572 | 0.628 | 0.45
NCI-H1666 | 0.897 | 0.951 | 0.971 | 0.981 | 0.838 | 0.486 | 0.636 | 0.631 | 0.665 | 0.584 | 0.83 | 0.861 | 0.951 | 0.88 | 0.46 | 0.74 | 0.675 | 0.731 | 0.757 | 0.553
NCI-H1734 | – | 0.8 | 0.913 | 0.993 | 0.758 | 1.05 | 1.09 | 1.03 | 1.14 | 1.01 | 0.854 | 0.766 | 0.801 | 0.804 | 0.818 | 0.495 | 0.494 | 0.537 | 0.526 | 0.513
NCI-H1755 | 0.915 | 0.991 | 0.945 | 0.936 | 0.939 | 0.874 | 1.08 | 1 | 1.17 | 0.78 | 1.03 | 0.979 | 0.968 | 0.973 | 0.972 | 0.71 | 0.678 | 0.709 | 0.763 | 0.623
NCI-H1793 | 0.714 | 0.71 | 0.58 | 0.775 | 0.679 | 0.748 | 0.647 | 0.668 | 0.828 | 0.792 | 0.57 | 0.338 | 0.488 | 0.319 | 0.389 | 0.424 | 0.407 | 0.517 | 0.401 | 0.439
NCI-H1915 | 1.08 | 1.11 | 1.1 | 1.3 | 1.05 | 0.681 | 0.975 | 1.01 | 1.14 | 0.835 | 0.769 | 0.781 | 0.772 | 0.794 | 0.772 | 0.245 | 0.255 | 0.274 | 0.263 | 0.248
NCI-H1944 | 0.875 | 0.91 | 0.853 | 0.929 | 0.885 | 0.89 | 0.847 | 0.746 | 0.977 | 0.819 | 1 | 1.05 | 1.05 | 1.01 | 0.86 | 0.411 | 0.489 | 0.551 | 0.463 | 0.447
NCI-H1975 | 0.779 | 0.897 | 0.846 | 1.08 | 0.73 | 0.554 | 0.91 | 0.831 | 0.908 | 0.62 | 1.14 | 1.13 | 1.13 | 0.992 | 1.1 | 0.399 | 0.401 | 0.422 | 0.419 | 0.387
NCI-H1993 | 0.803 | 0.768 | 0.723 | 0.783 | 0.665 | 0.652 | 0.779 | 0.824 | 0.747 | 0.809 | 0.932 | 0.942 | 0.853 | 0.838 | 0.789 | 0.674 | 0.645 | 0.628 | 0.637 | 0.541
NCI-H2009 | 1.17 | 1.2 | 1.18 | 1.32 | 1.23 | 0.899 | 0.892 | 0.977 | 1.11 | 1.02 | 1.12 | 1.15 | 1.24 | 1.19 | 1.11 | 0.359 | 0.394 | 0.369 | 0.371 | 0.325
NCI-H2023 | 0.708 | 0.933 | 0.857 | 1.09 | 0.907 | 0.793 | 0.85 | 0.793 | 1.2 | 0.711 | 0.898 | 0.971 | 1.04 | 1.01 | 0.996 | 0.235 | 0.183 | 0.225 | 0.253 | 0.204
NCI-H2085 | 0.891 | 0.811 | 0.888 | 1.03 | 0.979 | 0.83 | 0.737 | 0.763 | 0.891 | 0.761 | 1.23 | 1.07 | 1.12 | 1.03 | 1 | 0.536 | 0.522 | 0.525 | 0.471 | 0.574
NCI-H2087 | 1.08 | 1.14 | 1.1 | 1.12 | 0.969 | 1.05 | 0.898 | 1.03 | 1.14 | 0.966 | 1.02 | 0.832 | 0.948 | 1.16 | 1.08 | 0.364 | 0.379 | 0.281 | 0.286 | 0.233
NCI-H2126 | 1.14 | 1.2 | 1.22 | 1.19 | 1.34 | 0.75 | 0.718 | 0.721 | 0.873 | 0.685 | 0.865 | 0.859 | 0.84 | 0.866 | 0.727 | 0.537 | 0.551 | 0.592 | 0.576 | 0.552
NCI-H2170 | 0.731 | 1.03 | 0.961 | 1.04 | 0.861 | – | 0.258 | 0.249 | 0.285 | 0.259 | 0.621 | 0.618 | 0.565 | 0.567 | 0.502 | 0.44 | 0.478 | 0.472 | 0.458 | 0.455
NCI-H2347 | 1.1 | 0.821 | – | 0.662 | 1.17 | 1.08 | 0.909 | 0.846 | 1.04 | 0.91 | 0.878 | 0.453 | 0.834 | 0.945 | 0.708 | 0.595 | 0.525 | 0.685 | 0.619 | 0.568
